Measured values taken from PubChem BioAssay AID330 (DTP/NCI, 2004).
Values joined by “and” are separate entries in the source; they are usually repeats but may differ in a detail not shown here. Identical values can stand only once. Inconclusive results and toxic doses are left out. How the source made its calls: active means survival T/C of 150% or more; inactive means T/C below 125% in these data.

Tested on: P388 leukemia ip, CD2F1 mice, survival T/C
Assay: NCI In Vivo Anticancer Drug Screen. Data for tumor model P388 Leukemia (intraperitoneal) in CD2F1 (CDF1) mice
Settings: endpoint: median survival time, higher = longer survival
Method in brief: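 Mice carrying the transplanted tumor received test compound or vehicle. Survival was recorded in each group, and the value is the treated-group measurement divided by that of the vehicle-treated control group.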

[1] = dose: 50.0 mg/kg/injection, schedule: Q01DX005 (ip), vehicle: Klucel (hydroxypropylcellulose) (HPC)
[2] = dose: 100.0 mg/kg/injection, schedule: Q01DX005 (ip), vehicle: Klucel (hydroxypropylcellulose) (HPC)
[3] = dose: 200.0 mg/kg/injection, schedule: Q01DX005 (ip), vehicle: Klucel (hydroxypropylcellulose) (HPC)
[4] = dose: 50.0 mg/kg/injection, schedule: Q01DX009 (ip), vehicle: saline with Tween-80
[5] = dose: 100.0 mg/kg/injection, schedule: Q01DX009 (ip), vehicle: saline with Tween-80
[6] = dose: 200.0 mg/kg/injection, schedule: Q01DX009 (ip), vehicle: saline with Tween-80
[7] = dose: 60.0 mg/kg/injection, schedule: Q01DX005 (ip), vehicle: saline with Tween-80
[8] = dose: 120.0 mg/kg/injection, schedule: Q01DX005 (ip), vehicle: saline with Tween-80
[9] = dose: 50.0 mg/kg/injection, schedule: Q01DX005 (ip), vehicle: saline
[10] = dose: 100.0 mg/kg/injection, schedule: Q01DX005 (ip), vehicle: saline
[11] = dose: 100.0 mg/kg/injection, schedule: Q04DX003 (ip), vehicle: Klucel (hydroxypropylcellulose) (HPC)
[12] = dose: 200.0 mg/kg/injection, schedule: Q04DX003 (ip), vehicle: Klucel (hydroxypropylcellulose) (HPC)
[13] = dose: 400.0 mg/kg/injection, schedule: Q04DX003 (ip), vehicle: Klucel (hydroxypropylcellulose) (HPC)
[14] = dose: 12.5 mg/kg/injection, schedule: Q01DX009 (ip), vehicle: saline
[15] = dose: 25.0 mg/kg/injection, schedule: Q01DX009 (ip), vehicle: saline
[16] = dose: 100.0 mg/kg/injection, schedule: Q04DX002 (ip), vehicle: saline
[17] = dose: 200.0 mg/kg/injection, schedule: Q04DX002 (ip), vehicle: saline

Measured: T/C

O=C(O)/C=N/NP(=O)(Oc1ccccc1)Oc1ccccc1
inactive: dose: 25.0 mg/kg/injection, schedule: Q01DX009 (ip), vehicle: distilled water + Tween-80 99 % of control | dose: 50.0 mg/kg/injection, schedule: Q01DX009 (ip), vehicle: distilled water + Tween-80 100 % of control and 94 % of control | dose: 100.0 mg/kg/injection, schedule: Q01DX009 (ip), vehicle: distilled water + Tween-80 100 % of control and 95 % of control | dose: 200.0 mg/kg/injection, schedule: Q01DX009 (ip), vehicle: distilled water + Tween-80 100 % of control and 97 % of control | dose: 400.0 mg/kg/injection, schedule: Q01DX009 (ip), vehicle: distilled water + Tween-80 100 % of control and 109 % of control

O=C(N1CCN(C(=O)S(=O)(=O)c2ccc(F)cc2)CC1)S(=O)(=O)c1ccc(F)cc1
inactive: [1] 99 % of control | [2] 98 % of control | [3] 100 % of control

COc1ccc(NC2=NC(C)(CO)CS2)cc1 (stereo not given)
inactive: [4] 116 % of control | [5] 96 % of control | [6] 107 % of control

CCCCOC(=O)CCC(C)=O
inactive: dose: 100.0 mg/kg/injection, schedule: Q04DX003 (ip), vehicle: saline with Tween-80 100 % of control | dose: 200.0 mg/kg/injection, schedule: Q04DX003 (ip), vehicle: saline with Tween-80 100 % of control | dose: 400.0 mg/kg/injection, schedule: Q04DX003 (ip), vehicle: saline with Tween-80 104 % of control

CCOCc1ccc(C(=O)NCCCc2c(-c3ccccc3)nc(N)[nH]c2=O)cc1
inactive: dose: 3.75 mg/kg/injection, schedule: Q01DX005 (ip), vehicle: Klucel (hydroxypropylcellulose) (HPC) 100 % of control and 103 % of control and 94 % of control | dose: 7.5 mg/kg/injection, schedule: Q01DX005 (ip), vehicle: Klucel (hydroxypropylcellulose) (HPC) 93 % of control and 97 % of control | dose: 15.0 mg/kg/injection, schedule: Q01DX005 (ip), vehicle: Klucel (hydroxypropylcellulose) (HPC) 89 % of control and 92 % of control and 97 % of control | dose: 240.0 mg/kg/injection, schedule: Q01DX005 (ip), vehicle: Klucel (hydroxypropylcellulose) (HPC) 86 % of control

Cc1nn(C(=O)c2ccncc2)c(C)c1N=Nc1ccc(S(=O)(=O)Nc2ncccn2)cc1
inactive: dose: 50.0 mg/kg/injection, schedule: Q01DX009 (ip), vehicle: Klucel (hydroxypropylcellulose) (HPC) 109 % of control | dose: 100.0 mg/kg/injection, schedule: Q01DX009 (ip), vehicle: Klucel (hydroxypropylcellulose) (HPC) 109 % of control | dose: 200.0 mg/kg/injection, schedule: Q01DX009 (ip), vehicle: Klucel (hydroxypropylcellulose) (HPC) 105 % of control

COc1ccc(N2C(=O)c3ccc4c5ccc6c7c(ccc(c8ccc(c3c48)C2=O)c75)C(=O)NC6=O)cc1
inactive: dose: 12.5 mg/kg/injection, schedule: Q01DX005 (ip), vehicle: Klucel (hydroxypropylcellulose) (HPC) 89 % of control | dose: 25.0 mg/kg/injection, schedule: Q01DX005 (ip), vehicle: Klucel (hydroxypropylcellulose) (HPC) 90 % of control | [1] 90 % of control | [2] 90 % of control | [3] 89 % of control

Cc1cc[n+](C2=C(Nc3ccc(Cl)cc3C)C(=O)c3ccccc3C2=O)cc1
inactive: dose: 12.5 mg/kg/injection, schedule: Q01DX005 (ip), vehicle: saline with Tween-80 109 % of control | dose: 25.0 mg/kg/injection, schedule: Q01DX005 (ip), vehicle: saline with Tween-80 109 % of control | dose: 50.0 mg/kg/injection, schedule: Q01DX005 (ip), vehicle: saline with Tween-80 119 % of control | [7] 121 % of control

c1ccc(Cc2csc3nc4ccccc4n23)cc1
inactive: [7] 100 % of control | [8] 109 % of control | dose: 240.0 mg/kg/injection, schedule: Q01DX005 (ip), vehicle: saline with Tween-80 99 % of control

CC(=O)C(N)=O
inactive: [9] 98 % of control | [10] 100 % of control | dose: 200.0 mg/kg/injection, schedule: Q01DX005 (ip), vehicle: saline 101 % of control

COc1cccc2c1C(=O)c1c(O)c3c(c(O)c1C2=O)CC(O)(C1(C)OCC(C)(C)CO1)CC3OC1CC(N)C(O)C(C)O1 (stereo not given)
inactive: dose: 3.13 mg/kg/injection, schedule: Q04DX003 (ip), vehicle: water 104 % of control | dose: 6.25 mg/kg/injection, schedule: Q04DX003 (ip), vehicle: water 106 % of control | dose: 12.5 mg/kg/injection, schedule: Q04DX003 (ip), vehicle: water 111 % of control | dose: 25.0 mg/kg/injection, schedule: Q04DX003 (ip), vehicle: water 104 % of control | dose: 50.0 mg/kg/injection, schedule: Q04DX003 (ip), vehicle: water 95 % of control

COc1cc2c(c(OC)c1OC)CCC/C2=N\NC(N)=S
inactive: [11] 92 % of control | [12] 92 % of control | [13] 86 % of control

CC(C)(O)C#CC(F)(F)C(F)(F)C(F)(F)C(F)(F)C(F)(F)C(F)(F)F
inactive: dose: 60.0 mg/kg/injection, schedule: Q01DX005 (ip), vehicle: saline 107 % of control | dose: 120.0 mg/kg/injection, schedule: Q01DX005 (ip), vehicle: saline 105 % of control | dose: 240.0 mg/kg/injection, schedule: Q01DX005 (ip), vehicle: saline 103 % of control

CC1CN(C(=O)Nc2ccc(Cl)c(Cl)c2)C(=O)O1 (stereo not given)
inactive: [11] 101 % of control | [12] 99 % of control | [13] 100 % of control

NC1(C(=O)O)CCc2ccccc2C1 (stereo not given)
inactive: [1] 104 % of control | [2] 102 % of control | [3] 100 % of control

COc1ccc(C(=O)c2cc3c(ccc4ccccc43)oc2=O)cc1
inactive: dose: 6.25 mg/kg/injection, schedule: Q01DX009 (ip), vehicle: saline 98 % of control | [14] 96 % of control | [15] 90 % of control

CCN(CC)CCOC(=O)Cc1cccc2c(=O)cc(-c3ccccc3)oc12
inactive: [14] 120 % of control | [15] 108 % of control and 97 % of control | [9] 100 % of control | dose: 100.0 mg/kg/injection, schedule: Q01DX001 (ip), vehicle: saline 102 % of control | [10] 108 % of control | [16] 107 % of control | dose: 100.0 mg/kg/injection, schedule: Q04DX003 (ip), vehicle: saline 107 % of control | dose: 100.0 mg/kg/injection, schedule: Q08DX002 (ip), vehicle: saline 111 % of control | dose: 200.0 mg/kg/injection, schedule: Q01DX001 (ip), vehicle: saline 114 % of control | [17] 110 % of control | dose: 200.0 mg/kg/injection, schedule: Q08DX002 (ip), vehicle: saline 117 % of control | dose: 300.0 mg/kg/injection, schedule: Q01DX001 (ip), vehicle: saline 117 % of control | dose: 300.0 mg/kg/injection, schedule: Q04DX002 (ip), vehicle: saline 114 % of control | dose: 300.0 mg/kg/injection, schedule: Q08DX002 (ip), vehicle: saline 112 % of control | dose: 400.0 mg/kg/injection, schedule: Q01DX001 (ip), vehicle: saline 116 % of control

O=C(O)Cc1sc(-c2ccccc2)nc1-c1ccc(Cl)cc1
inactive: [4] 114 % of control | [5] 110 % of control | [6] 112 % of control

CC1CN(/C=C2\Cc3c(Cl)cccc3C2=O)CCN1c1ccc(Cl)cc1 (stereo not given)
inactive: [16] 100 % of control | [17] 102 % of control | dose: 400.0 mg/kg/injection, schedule: Q04DX002 (ip), vehicle: saline 100 % of control

CC(=O)OC1(C)CC2(CCCCC2)N=N1 (stereo not given)
inactive: dose: 12.5 mg/kg/injection, schedule: Q01DX009 (ip), vehicle: other 100 % of control | dose: 25.0 mg/kg/injection, schedule: Q01DX009 (ip), vehicle: other 113 % of control | dose: 50.0 mg/kg/injection, schedule: Q01DX009 (ip), vehicle: other 98 % of control | dose: 100.0 mg/kg/injection, schedule: Q01DX009 (ip), vehicle: other 111 % of control and 91 % of control | dose: 200.0 mg/kg/injection, schedule: Q01DX009 (ip), vehicle: other 107 % of control | dose: 400.0 mg/kg/injection, schedule: Q01DX009 (ip), vehicle: other 113 % of control

Cc1cc(=O)oc2c1ccc1c(O)cccc12
inactive: [7] 106 % of control | [8] 100 % of control
